Test results as given in patent publication US11883383B2, “Pharmaceutically acceptable salts of [3-(4- {2-butyl-1-[4-(4-chloro-phenoxy)-phenyl]-1H-imidazol-4-yl} -phenoxy)-propyl]-diethyl-amine” (vTv Therapeutics LLC, priority 2018, dated 2024).
Read-outs that look alike come from different tables or passages of the source.

Key:
Format in all cases: physicochemical
[1] = Thermogravimetric analysis (TGA) weight loss of crystalline hits; conditions: for Speculated Form: based on TGA/DSC characterization data
Protocol: (§1) TGA data were collected using a TA Q500 and Q550 from TA Instruments. DSC was performed using a TA Q2000 from TA Instruments. DSC was calibrated with Indium reference standard and the TGA was calibrated using nickel reference standard.
(§2) All hits were further characterized by TGA and DSC, with the stoichiometry determined by ^1H NMR or HPLC/IC. Based on the characterization data in Table 2 below, most of them were considered to be anhydrates.

[2] = Differential scanning calorimetry (DSC) endotherms of crystalline hits; conditions: for DSC Endo. (onset, ° C.): onset temperature; for DSC Endo., peak temperature: peak temperature (footnote *)
Protocol: as §1, §2

[3] = Stoichiometry (acid/freebase) by 1H NMR or HPLC/IC
Description: Solution NMR was collected on Bruker 500M NMR Spectrometer using DMSO-d6 and CD3OD as solvents.
Agilent 1100 HPLC was utilized to analyze the purity and stoichiometry, with detailed method listed in below.
IC method for counter-ion content measurement is listed below.
as §2

[4] = Salt/co-crystal screening: 38 acids, eight solvent systems, solids analysed by XRPD; conditions: acid/freebase charge 1:1 unless label says 2:1, stirred at RT, else 5° C. slurry, anti-solvent addition or evaporation (footnote marks)
Protocol: XRPD analysis was performed with a Panalytical X'Pert^3 Powder XRPD on a Si zero-background holder. The 2θ position was calibrated against Panalytical Si reference standard disc.
A total of 320 salt/co-crystal screening experiments were conducted using 38 acids (two molar ratios for HCl and HBr) and eight solvent systems. Specifically, freebase stock solutions of ˜100 mg/mL were first prepared in each solvent system. For each experiment, 0.2 mL stock solution and the corresponding acids were mixed in a molar charge ratio of 1:1 (acid/freebase, 2:1 for HCl/freebase and HBr/freebase as well), and then stirred at RT. After stirring for 3-5 days, if precipitation was observed, the precipitate was isolated. It no precipitation, the clear solutions were first transferred to slurry at 5° C. to introduce precipitation. Solutions without any precipitation were further subjected to anti-solvent addition (for solvents in column B/D, 0.5 mL hexane was added; for solvents in column G/H, 0.5 mL water was added; for solvent in column F, 0.5 mL n-heptane was added). If still no precipitation, the final clear solutions were transferred to evaporation at RT to induce precipitation. All solids isolated were vacuum dried at RT for 2 hrs before XRPD analysis.

## CCCCc1nc(-c2ccc(OCCCN(CC)CC)cc2)cn1-c1ccc(Oc2ccc(Cl)cc2)cc1.O=C(O)/C=C/C(=O)O [Fumarate Type A]
[1]
  TGA Wt. Loss (%): negligible
  Speculated Form: Anhydrate
[2]
  DSC Endo. (onset, ° C.): 115.0 °C
[3]
  Stoichiometry (acid/base): 1.00

## CCCCc1nc(-c2ccc(OCCCN(CC)CC)cc2)cn1-c1ccc(Oc2ccc(Cl)cc2)cc1.O=C(O)[C@@H](O)[C@H](O)[C@H](O)[C@@H](O)C(=O)O [Galactarate Type A]
[1]
  Speculated Form: Anhydrate
[1]; up to 130° C.
  TGA Wt. Loss (%): 0.6 up to %
[2]
  DSC Endo. (onset, ° C.): 158.4 °C
  DSC Endo., peak temperature: 106.3 °C
[3]
  Stoichiometry (acid/base): 0.98

## CCCCc1nc(-c2ccc(OCCCN(CC)CC)cc2)cn1-c1ccc(Oc2ccc(Cl)cc2)cc1.O=C(O)c1cc(O)ccc1O [Gentisate Type A]
[1]
  Speculated Form: Hydrate
[1]; up to 120° C.
  TGA Wt. Loss (%): 1.8 up to %
[3]
  Stoichiometry (acid/base): 1.01

## CCCCc1nc(-c2ccc(OCCCN(CC)CC)cc2)cn1-c1ccc(Oc2ccc(Cl)cc2)cc1.O=C(O)c1cc(O)ccc1O [Gentisate Type B]
[1]
  TGA Wt. Loss (%): negligible
  Speculated Form: Anhydrate
[2]
  DSC Endo. (onset, ° C.): 122.9 °C
[3]
  Stoichiometry (acid/base): 1.03

## Br.CCCCc1nc(-c2ccc(OCCCN(CC)CC)cc2)cn1-c1ccc(Oc2ccc(Cl)cc2)cc1 [HBr salt Type A]
[1]
  TGA Wt. Loss (%): negligible
  Speculated Form: Anhydrate
[2]
  DSC Endo. (onset, ° C.): 169.9 °C
[3]
  Stoichiometry (acid/base): 1.05

## Br.CCCCc1nc(-c2ccc(OCCCN(CC)CC)cc2)cn1-c1ccc(Oc2ccc(Cl)cc2)cc1 [HBr salt Type B]
[1]
  TGA Wt. Loss (%): negligible
  Speculated Form: Anhydrate
[3]
  Stoichiometry (acid/base): 2.07

## CCCCc1nc(-c2ccc(OCCCN(CC)CC)cc2)cn1-c1ccc(Oc2ccc(Cl)cc2)cc1.Cl [HCl salt Type A]
[1]
  TGA Wt. Loss (%): negligible
  Speculated Form: Anhydrate
[2]
  DSC Endo. (onset, ° C.): 167.0 °C
[3]
  Stoichiometry (acid/base): 1.33

## CCCCc1nc(-c2ccc(OCCCN(CC)CC)cc2)cn1-c1ccc(Oc2ccc(Cl)cc2)cc1.O=C(O)CNC(=O)c1ccccc1 [Hippurate Type A]
[1]
  TGA Wt. Loss (%): negligible
  Speculated Form: Anhydrate
[2]
  DSC Endo. (onset, ° C.): 72.7 °C
  DSC Endo., peak temperature: 44.3 °C
[3]
  Stoichiometry (acid/base): 0.98

## CCCCc1nc(-c2ccc(OCCCN(CC)CC)cc2)cn1-c1ccc(Oc2ccc(Cl)cc2)cc1.O=C(O)C[C@H](O)C(=O)O [L-Malate Type A]
[1]
  TGA Wt. Loss (%): negligible
  Speculated Form: Anhydrate
[2]
  DSC Endo. (onset, ° C.): 67.8 °C
[3]
  Stoichiometry (acid/base): 1.11

## CCCCc1nc(-c2ccc(OCCCN(CC)CC)cc2)cn1-c1ccc(Oc2ccc(Cl)cc2)cc1.O=C(O)C(O)C(O)C(=O)O [L-Tartrate Type A]
[1]
  Speculated Form: Hydrate
[1]; up to 60° C.
  TGA Wt. Loss (%): 2.1 up to %
[2]
  DSC Endo. (onset, ° C.): 76.4 °C
[3]
  Stoichiometry (acid/base): 1.00

## CCCCc1nc(-c2ccc(OCCCN(CC)CC)cc2)cn1-c1ccc(Oc2ccc(Cl)cc2)cc1.O=C(O)/C=C\C(=O)O [Maleate Type A]
[1]
  TGA Wt. Loss (%): negligible
  Speculated Form: Anhydrate
[2]
  DSC Endo. (onset, ° C.): 120.2 °C
[3]
  Stoichiometry (acid/base): 0.97

## CCCCc1nc(-c2ccc(OCCCN(CC)CC)cc2)cn1-c1ccc(Oc2ccc(Cl)cc2)cc1.O=C(O)C(=O)O [Oxalate Type A]
[1]
  TGA Wt. Loss (%): negligible
  Speculated Form: Anhydrate
[2]
  DSC Endo. (onset, ° C.): 109.5 °C
[3]
  Stoichiometry (acid/base): 1.12

## CCC(=O)O [Propionic acid]
[4]
  Solid obtained in salt screening (XRPD), solvent D Acetone/Hexane (1:2, v/v): gel*
  Solid obtained in salt screening (XRPD), solvent H Dioxane/H2O (9:1, v/v): amorphous*
  Solid obtained in salt screening (XRPD), solvent A Ethanol: gel*
  Solid obtained in salt screening (XRPD), solvent B Ethyl acetate/Hexane (1:2, v/v): FB Type A
  Solid obtained in salt screening (XRPD), solvent G Methanol/H2O (19:1, v/v): FB Type A^&
  Solid obtained in salt screening (XRPD), solvent F Methyl tertbutyl ether: FB Type B*
  Solid obtained in salt screening (XRPD), solvent C THF: gel*
  Solid obtained in salt screening (XRPD), solvent E Toluene: gel*

## O=C(O)[C@H](O)c1ccccc1 [R-mandelic acid]
[4]
  Solid obtained in salt screening (XRPD), solvent D Acetone/Hexane (1:2, v/v): gel
  Solid obtained in salt screening (XRPD), solvent H Dioxane/H2O (9:1, v/v): amorphous*
  Solid obtained in salt screening (XRPD), solvent A Ethanol: amorphous*
  Solid obtained in salt screening (XRPD), solvent B Ethyl acetate/Hexane (1:2, v/v): gel*
  Solid obtained in salt screening (XRPD), solvent G Methanol/H2O (19:1, v/v): amorphous*
  Solid obtained in salt screening (XRPD), solvent F Methyl tertbutyl ether: gel
  Solid obtained in salt screening (XRPD), solvent C THF: gel
  Solid obtained in salt screening (XRPD), solvent E Toluene: gel

## O=C1NS(=O)(=O)c2ccccc21 [Saccharin]
[4]
  Solid obtained in salt screening (XRPD), solvent D Acetone/Hexane (1:2, v/v): gel
  Solid obtained in salt screening (XRPD), solvent H Dioxane/H2O (9:1, v/v): amorphous*
  Solid obtained in salt screening (XRPD), solvent A Ethanol: amorphous*
  Solid obtained in salt screening (XRPD), solvent C THF: gel
  Solid obtained in salt screening (XRPD), solvent E Toluene: gel

## O=C(O)c1ccccc1O [Salicyclic acid]
[4]
  Solid obtained in salt screening (XRPD), solvent D Acetone/Hexane (1:2, v/v): amorphous*
  Solid obtained in salt screening (XRPD), solvent H Dioxane/H2O (9:1, v/v): amorphous*
  Solid obtained in salt screening (XRPD), solvent A Ethanol: gel*
  Solid obtained in salt screening (XRPD), solvent B Ethyl acetate/Hexane (1:2, v/v): amorphous*
  Solid obtained in salt screening (XRPD), solvent G Methanol/H2O (19:1, v/v): amorphous*
  Solid obtained in salt screening (XRPD), solvent F Methyl tertbutyl ether: amorphous^&
  Solid obtained in salt screening (XRPD), solvent C THF: gel*
  Solid obtained in salt screening (XRPD), solvent E Toluene: gel*

## CCCCCCCCCCCCCCCCCC(=O)O [Stearic acid]
[4]
  Solid obtained in salt screening (XRPD), solvent H Dioxane/H2O (9:1, v/v): amorphous^&
  Solid obtained in salt screening (XRPD), solvent F Methyl tertbutyl ether: FB Type A*

## O=C(O)CCC(=O)O [Succnic acid]
[4]
  Solid obtained in salt screening (XRPD), solvent D Acetone/Hexane (1:2, v/v): amorphous*
  Solid obtained in salt screening (XRPD), solvent H Dioxane/H2O (9:1, v/v): amorphous*
  Solid obtained in salt screening (XRPD), solvent A Ethanol: gel*
  Solid obtained in salt screening (XRPD), solvent B Ethyl acetate/Hexane (1:2, v/v): amorphous*
  Solid obtained in salt screening (XRPD), solvent G Methanol/H2O (19:1, v/v): amorphous*
  Solid obtained in salt screening (XRPD), solvent F Methyl tertbutyl ether: FB Type B*
  Solid obtained in salt screening (XRPD), solvent C THF: gel*
  Solid obtained in salt screening (XRPD), solvent E Toluene: gel*

## COc1cc(C(=O)O)ccc1O [Vanillic acid]
[4]
  Solid obtained in salt screening (XRPD), solvent H Dioxane/H2O (9:1, v/v): amorphous*
  Solid obtained in salt screening (XRPD), solvent A Ethanol: amorphous
  Solid obtained in salt screening (XRPD), solvent G Methanol/H2O (19:1, v/v): amorphous*
  Solid obtained in salt screening (XRPD), solvent C THF: gel
  Solid obtained in salt screening (XRPD), solvent E Toluene: gel

## COc1cc(C=O)ccc1O [Vanillin]
[4]
  Solid obtained in salt screening (XRPD), solvent D Acetone/Hexane (1:2, v/v): gel*
  Solid obtained in salt screening (XRPD), solvent H Dioxane/H2O (9:1, v/v): FB Type A^&
  Solid obtained in salt screening (XRPD), solvent A Ethanol: gel*
  Solid obtained in salt screening (XRPD), solvent B Ethyl acetate/Hexane (1:2, v/v): gel*
  Solid obtained in salt screening (XRPD), solvent G Methanol/H2O (19:1, v/v): amorphous^&
  Solid obtained in salt screening (XRPD), solvent F Methyl tertbutyl ether: amorphous*
  Solid obtained in salt screening (XRPD), solvent C THF: gel
  Solid obtained in salt screening (XRPD), solvent E Toluene: gel

## O=C(O)/C=C/c1ccccc1 [trans Cinnamic acid]
[4]
  Solid obtained in salt screening (XRPD), solvent D Acetone/Hexane (1:2, v/v): gel
  Solid obtained in salt screening (XRPD), solvent H Dioxane/H2O (9:1, v/v): amorphous*
  Solid obtained in salt screening (XRPD), solvent A Ethanol: amorphous
  Solid obtained in salt screening (XRPD), solvent B Ethyl acetate/Hexane (1:2, v/v): gel
  Solid obtained in salt screening (XRPD), solvent G Methanol/H2O (19:1, v/v): amorphous*
  Solid obtained in salt screening (XRPD), solvent F Methyl tertbutyl ether: amorphous*
  Solid obtained in salt screening (XRPD), solvent C THF: gel
  Solid obtained in salt screening (XRPD), solvent E Toluene: gel
